“And” between values parts separate entries of the source, which are not always exact repeats. Equal entries are not always repeated. Bridge positions count the residues as written; N and C are the ends. Square brackets hold non-standard residues; d marks the D form. Peptide text beside a SMILES is read from it. * marks the point of attachment. Heptanoyl(6-Me) = CC(C)CCCCC(=O)*; Dab = NCC[C@H](N)C(=O)O
Test system: Escherichia coli
Experiment: MALDI-TOF detection of released characteristic proteins, 10 min at 50° C., filtration (examples V, VI)
Assay type: cell-based
Conditions: for Aire sous la courbe des pics observés, Protéine chaperonne de stress acide HdeB / Aire sous la courbe des pics observés, Protéine ribosomique 50S L29 / Aire sous la courbe des pics observés, Protéine ribosomique 50S L31 / Aire sous la courbe des pics observés, Protéine ribosomique 50S L33 / Aire sous la courbe des pics observés, SPIRAP (Stationary-Phase-Induced Ribosome-Associated Protein) / Ratio par protéine HdeB/Colistine / Ratio par protéine L29/Colistine / Ratio par protéine L31/Colistine / Ratio par protéine L33/Colistine / Ratio par protéine SIRAP/Colistine / Somme des ratios / sensitivity or resistance to colistin by MALDI-TOF: colistin 2.5 mg/ml, 10 min 50° C.; for classification by sum of the ratios against threshold: threshold 0.30
Method: The tests were carried out using the following steps: • preparing a suspension of microorganism at 2 McF in water (suspension medium, bioMérieux reference 70700), • preparing a solution of colistin sulfate (Sigma reference C4461) at a concentration of 2× in pure water (taking into account the colistin titer indicated by the manufacturer).
In the context of this example, the tests were carried out with the method of the present invention to determine the sensitivity or resistance of several bacteria of several strains such as in example V and comprising the following steps: • measuring the intensity of each peak observed, • finding a ratio between the sum of the intensities of the protein peaks of the microorganism and at least 1 peak of colistin. • determining the status, resistant or sensitive to colistin, as a function of the sum of the ratios obtained and of a threshold fixed for each species. • a resistant microorganism will have a low ratio and a sensitive microorganism will have a high ratio.
Firstly, the same strains of E. coli (EC_S10, EC_S15, EC_R16, EC_R17), used previously, are studied and the proteins characteristic of the species E. coli are analyzed. They are the following proteins: the stationary-phase-induced ribosome-associated protein (SPIRAP), the acid stress chaperone HdeB and the 50S ribosomal proteins L29, L31 and L33.

CC(C)CCCCC(=O)N[C@@H](CCN)C(=O)N[C@H](C(=O)N[C@@H](CCN)C(=O)N[C@H]1CCNC(=O)[C@H]([C@@H](C)O)NC(=O)[C@H](CCN)NC(=O)[C@H](CCN)NC(=O)[C@H](CC(C)C)NC(=O)[C@@H](CC(C)C)NC(=O)[C@H](CCN)NC1=O)[C@@H](C)O [colistin] ({Heptanoyl(6-Me)}-[Dab]T[Dab][Dab][Dab][dL]L[Dab][Dab]T; lactam 4-C)
Aire sous la courbe des pics observés, Protéine chaperonne de stress acide HdeB (strain EC-R16): 0.00 unité arbitraire
Aire sous la courbe des pics observés, Protéine ribosomique 50S L29 (strain EC-R16): 0.00 unité arbitraire
Aire sous la courbe des pics observés, Protéine ribosomique 50S L31 (strain EC-R16): 0.00 unité arbitraire
Aire sous la courbe des pics observés, Protéine ribosomique 50S L33 (strain EC-R16): 0.00 unité arbitraire
Aire sous la courbe des pics observés, SPIRAP (Stationary-Phase-Induced Ribosome-Associated Protein) (strain EC-R16): 0.00 unité arbitraire
Ratio par protéine HdeB/Colistine (strain EC-R16): 0.00
Ratio par protéine L29/Colistine (strain EC-R16): 0.00
Ratio par protéine L31/Colistine (strain EC-R16): 0.00
Ratio par protéine L33/Colistine (strain EC-R16): 0.00
Ratio par protéine SIRAP/Colistine (strain EC-R16): 0.00
Somme des ratios (strain EC-R16): 0.00
classification by sum of the ratios against threshold (strain EC-R16): resistant (the strains whose sum of the ratios is strictly below 0.30 will be considered as resistant)
Aire sous la courbe des pics observés, Protéine chaperonne de stress acide HdeB (strain EC-R17): 0.00 unité arbitraire
Aire sous la courbe des pics observés, Protéine ribosomique 50S L29 (strain EC-R17): 0.00 unité arbitraire
Aire sous la courbe des pics observés, Protéine ribosomique 50S L31 (strain EC-R17): 0.00 unité arbitraire
Aire sous la courbe des pics observés, Protéine ribosomique 50S L33 (strain EC-R17): 0.00 unité arbitraire
Aire sous la courbe des pics observés, SPIRAP (Stationary-Phase-Induced Ribosome-Associated Protein) (strain EC-R17): 0.00 unité arbitraire
Ratio par protéine HdeB/Colistine (strain EC-R17): 0.00
Ratio par protéine L29/Colistine (strain EC-R17): 0.00
Ratio par protéine L31/Colistine (strain EC-R17): 0.00
Ratio par protéine L33/Colistine (strain EC-R17): 0.00
Ratio par protéine SIRAP/Colistine (strain EC-R17): 0.00
Somme des ratios (strain EC-R17): 0.00
classification by sum of the ratios against threshold (strain EC-R17): resistant (the strains whose sum of the ratios is strictly below 0.30 will be considered as resistant)
Ratio par protéine HdeB/Colistine (strain EC-S10): 0.15
Ratio par protéine L33/Colistine (strain EC-S10): 0.15
Somme des ratios (strain EC-S10): 0.30 and 0.39
classification by sum of the ratios against threshold (strain EC-S10): sensitive (the strains whose sum of the ratios is greater than or equal to 0.30 will be considered as sensitive)
Aire sous la courbe des pics observés, Protéine chaperonne de stress acide HdeB (strain EC-S15): 97.46 unité arbitraire and 60.9 unité arbitraire
Aire sous la courbe des pics observés, Protéine ribosomique 50S L33 (strain EC-S15): 86.71 unité arbitraire and 68.12 unité arbitraire
Aire sous la courbe des pics observés, SPIRAP (Stationary-Phase-Induced Ribosome-Associated Protein) (strain EC-S15): 0.00 unité arbitraire
Ratio par protéine HdeB/Colistine (strain EC-S15): 0.21
Ratio par protéine L29/Colistine (strain EC-S15): 0.02 and 0.01
Ratio par protéine L31/Colistine (strain EC-S15): 0.02 and 0.04
Ratio par protéine L33/Colistine (strain EC-S15): 0.26 and 0.19
Somme des ratios (strain EC-S15): 0.55 and 0.44
classification by sum of the ratios against threshold (strain EC-S15): sensitive (the strains whose sum of the ratios is greater than or equal to 0.30 will be considered as sensitive)
sensitivity or resistance to colistin by MALDI-TOF (strain EC_R16): resistant
sensitivity or resistance to colistin by MALDI-TOF (strain EC_R17): resistant
sensitivity or resistance to colistin by MALDI-TOF (strain EC_S10): sensitive
sensitivity or resistance to colistin by MALDI-TOF (strain EC_S15): sensitive
